From patent publication US20060292213A1, “Enoximone formulations and their use in the treatment of PDE-III mediated diseases” (Myogen, Inc., priority 2004, published 2006)
≈ marks a conversion by molar mass, not a printed value. Like-named read-outs stand apart in the source and are kept apart here.

Assays:
[1] = test system: patients with primary thrombocythemia and thrombocytosis; settings: used to lower platelet counts; cited from earlier work
PDE-III = settings: cited from earlier work
men who suffer from ED = settings: ED of psychogenic or organic etiology; cited from earlier work
[2] = test system: subjects displaying chronic stable angina; experiment: Double blind placebo controlled cross over trial in chronic stable angina (Example 7); format: in vivo, human; settings: single oral dose 75 mg
Procedure: A double blind placebo controlled cross over trial of enoximone was done with 20 subjects displaying chronic stable angina. Enoximone as a single oral dose (75 mg) was compared with placebo.

[3] = test system: spontaneously hypertensive rats; experiment: Anti-hypertensive activity, spontaneously hypertensive rats, single dose (Example 2); format: in vivo, rat; settings: for blood pressure (mean arterial): vehicle 169+/−7.9
Procedure: Spontaneously hypertensive rats were divided into groups and treated with vehicle or a single dose of 10, 30 or 100 mg/kg of enoximone. Mean arterial blood pressure and heart rate were recorded before and at 15, 30, 45 and 60 minutes after treatment. Blood pressure decreased in all drug treatment groups.

perfused hindlimb = experiment: Arteriolar resistance, pump perfused hindlimb preparation (Example 6); format: in vivo, dog
Source text: The pump perfused hindlimb preparation permits the in vivo determination of the direct vascular effects of a compound. Dogs were anesthetized and allowed to respire sponatenously. The branchial artery and vein were cannulated and a catheter was passed down the left carotid artery into the left ventricle. […]

anesthetized dogs = experiment: Cardiorenal hemodynamics, i.v. infusion in anesthetized dogs (Example 3); format: in vivo, dog
Mongrel dogs = experiment: Coronary blood flow, anesthetized mongrel dogs, electromagnetic flow probe (Example 5); format: in vivo, dog
Procedure: Mongrel dogs were anesthetized and given bolus injections of enoximone and coronary blood flow was measured using a Stratham electromagnetic flow probe, Model SP-7516-606-214, placed around the circumflex branch of the left coronary artery near its origin. The flow probe was connected to a Stratham Model SP2202 electromagnetic flow meter which was connected to a Grass Model 7P1 low level DC preamplifier. All recordings were made on a Grass Model 7B or […] polygraph.

[4] = test system: human platelet aggregation; experiment: Human platelet aggregation in platelet rich plasma, aggregometer (Example 8); format: cell-based; settings: 5 min, PRP incubated 5 minutes at room temperature
Procedure: Substances which increase platelet cAMP levels are known to inhibit platelet aggregation. Blood was taken from human donors not on aspirin or taking any aspirin-containing substances (or other nonsteroidal anti-inflammatory drugs) for at least two weeks prior to donation. […] PRP was exposed only to plastic laboratory ware. All experiments were completed within 3 hours. PRP was incubated for 5 minutes at room temperature with enoximone prior to the addition of any aggregating agent. Aggregation was monitored by continuous recording of light transmittance in a Chrono-log dual-channel aggregometer (Chrono-log Corp.) in atotal volume of 0.5 ml PRP. Aggregating substances used were ADP (5 μM), collagen […] and arachidonic acid (2 μg/ml) (Chrono-log Corp.). Enoximone ([…]) inhibited platelet aggregation in a concentration dependent manner. […] It was also ruled out that enoximone was inhibiting aggregation by somehow inhibiting the metabolism of arachidonic acid as measured by HPLC and RIA.

[5] = test system: spontaneously hypertensive rats; experiment: Anti-hypertensive activity, cannulated conscious female spontaneously hypertensive rats (Example 1); format: in vivo, rat; settings: 45 and 60 minute time points, 100 mg/kg and 30 mg/kg groups; statistically significant
Procedure: Female spontaneously hypertensive rats were anesthetized and cannulated. The end of the cannula was exteriorized through the skin for measurement of arterial blood pressure. Approximately 30 minutes after the rats regained consciousness, the experiment began. Mean blood pressure and heart rate were recorded 15 minutes prior to drug administration, at the time of administration, and 15, 30, 45 and 60 minutes following administration. Drug was administered at a variety of dosages. A statistically significant decrease in blood pressure of ˜42% was measured at the 45 and 60 minute time points for the 100 mg/kg and 30 mg/kg groups.

normal human volunteers = experiment: Renal function and plasma volume in normal human volunteers (Example 4); settings: single I.V. dose 2.5 mg/kg, then 200 mg t.i.d. for 5 days

interferon-α
patients achieving a stable state of remission [1]: approximately 50%

CCCc1nn(C)c2c(=O)[nH]c(-c3cc(S(=O)(=O)N4CCN(C)CC4)ccc3OCC)nc12 [Sildenafil, 5-[2-ethoxy-5-(4-methylpiperazin-1-ylsulphonyl)phenyl]-1-methyl-3-n-propyl-6,7-dihydro-1H-pyrazolo[4,3-d]pyrimidin-7-one]
inhibition of PDE-III (PDE-III): negligible inhibition | men with improved sexual function (men who suffer from ED): about 70%

CSc1ccc(C(=O)c2[nH]c(=O)[nH]c2C)cc1 [Enoximone, 1,3-Dihydro-4-methyl-5-[4-(methylthio)benzoyl]-2H-imidazol-2-one]
total exercise duration, mean difference versus placebo ([2]; significantly longer than placebo): 22.8 s | time to onset of angina and development of significant ST-segment decrease, versus placebo ([2]; trends in favor of enoximone): similar | blood pressure (mean arterial) ([3]; 45 minutes, 30 mg/kg, non-significant): 151+/−9 | blood pressure (mean arterial) ([3]; 60 minutes, 30 mg/kg, non-significant): 142+/−8 | blood pressure (mean arterial) ([3]; 60 minutes, 100 mg/kg, significant): 100+/−9.7 | blood pressure, change in words ([3]; all drug treatment groups (10, 30 or 100 mg/kg)): decreased | heart rates ([3]; all groups (10, 30 or 100 mg/kg)): unchanged | decrease in hind limb perfusion pressure (perfused hindlimb; 0.3 mg/kg): 11+/−2% | decrease in hind limb perfusion pressure (perfused hindlimb; 3 mg/kg): 25+/−2% | blood pressure (anesthetized dogs; 30 μg/kg/min i.v. infusion): decreasing | cardiac contractile force (anesthetized dogs; 30 μg/kg/min i.v. infusion): increasing | glomerular filtration (anesthetized dogs; 100 μg/kg/min i.v. infusion): unchanged | increase in renal blood flow (anesthetized dogs; 100 μg/kg/min i.v. infusion): 15-20% | renal vascular resistance (anesthetized dogs; 100 μg/kg/min i.v. infusion): measurable decreases | increase in coronary blood flow (Mongrel dogs; bolus injection 0.1 mg/kg): 12+/−2% | increase in coronary blood flow (Mongrel dogs; bolus injection 1 mg/kg): 41+/−6% | IC50 ([4]; ADP (5 μM), read-out: IC50 for ADP induced aggregation): 20.9 µg/mL (≈ 84.2 µM) | IC50 ([4]; arachidonic acid (2 μg/ml), read-out: IC50 for arachidonic acid induced aggregation): 0.24 µg/mL (≈ 0.967 µM) | IC50 ([4]; collagen (1.0 mM), read-out: IC50 for collagen induced aggregation): 36.3 µg/mL (≈ 146 µM) | decrease in blood pressure [5]: ~42% | renal function (normal human volunteers): no impairment
